According to ChEMBL document CHEMBL5344452, “TYK2 Inhibitors for Treating Autoimmune and Inflammatory Diseases” (ACS Med Chem Lett, 2024):

target: Non-receptor tyrosine-protein kinase TYK2 (Homo sapiens, UniProt P29597); test: Inhibition of human TYK2 JH2 domain (575 to 876 residues) incubated for 60 mins by TR-FRET assay
Sequence (P29597 whole entry, the tested form may be a part): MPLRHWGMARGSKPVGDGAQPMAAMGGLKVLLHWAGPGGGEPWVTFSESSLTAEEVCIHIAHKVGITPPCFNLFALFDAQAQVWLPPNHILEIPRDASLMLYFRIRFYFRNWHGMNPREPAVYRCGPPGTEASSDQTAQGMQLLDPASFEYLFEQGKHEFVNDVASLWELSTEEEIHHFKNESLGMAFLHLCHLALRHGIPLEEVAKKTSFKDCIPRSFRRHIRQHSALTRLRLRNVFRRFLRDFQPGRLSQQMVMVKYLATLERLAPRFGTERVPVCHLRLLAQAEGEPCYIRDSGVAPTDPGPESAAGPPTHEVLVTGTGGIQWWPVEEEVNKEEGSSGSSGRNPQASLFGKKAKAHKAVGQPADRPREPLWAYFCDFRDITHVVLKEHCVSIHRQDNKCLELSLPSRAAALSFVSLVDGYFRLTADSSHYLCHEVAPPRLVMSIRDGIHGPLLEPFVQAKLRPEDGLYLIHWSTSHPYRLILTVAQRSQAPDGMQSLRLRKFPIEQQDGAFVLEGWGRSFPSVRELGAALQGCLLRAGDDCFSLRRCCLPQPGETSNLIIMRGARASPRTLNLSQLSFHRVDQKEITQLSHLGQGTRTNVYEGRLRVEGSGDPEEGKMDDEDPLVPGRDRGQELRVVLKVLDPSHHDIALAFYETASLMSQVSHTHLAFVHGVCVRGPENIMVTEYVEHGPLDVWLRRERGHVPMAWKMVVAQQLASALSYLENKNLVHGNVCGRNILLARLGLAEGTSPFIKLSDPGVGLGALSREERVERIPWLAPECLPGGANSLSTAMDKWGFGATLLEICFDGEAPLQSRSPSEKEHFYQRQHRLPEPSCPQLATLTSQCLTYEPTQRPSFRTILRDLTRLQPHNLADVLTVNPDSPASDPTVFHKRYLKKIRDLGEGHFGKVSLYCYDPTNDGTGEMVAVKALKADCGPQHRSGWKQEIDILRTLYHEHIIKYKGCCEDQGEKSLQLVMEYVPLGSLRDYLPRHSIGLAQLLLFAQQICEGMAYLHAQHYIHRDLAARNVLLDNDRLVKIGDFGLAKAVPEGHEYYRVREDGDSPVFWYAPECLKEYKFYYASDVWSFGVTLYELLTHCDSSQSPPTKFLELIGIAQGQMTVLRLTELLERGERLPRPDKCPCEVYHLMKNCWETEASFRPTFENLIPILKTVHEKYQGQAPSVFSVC

SMILES	IC50
CC(=O)Nc1cc2c(cn1)c(C)nn2-c1nc(C2CCOC2)c(C)s1 (stereo unspecified)	≤ 10 nM
CC(=O)Nc1cc2c(cn1)c(N1CC3(COC3)C1)nn2-c1nccc(C(C)(F)F)n1	≤ 10 nM
CC(=O)Nc1cc2c(cn1)c(C)nn2-c1cccc(C2CCOC2)n1 (stereo unspecified)	≤ 10 nM
CC(=O)Nc1cc2c(cn1)c(-c1ccc(C)nc1)nn2-c1ccnc(C(C)(F)F)n1	≤ 10 nM

Other lines, results leading:

IC50	SMILES
≤ 10 nM	COC1CC(Oc2cc(C3CCOC3)nc(-n3nc(C4CC4)c4cnc(NC(C)=O)cc43)c2)C1 (stereo unspecified)
≤ 10 nM	CC(=O)Nc1cc2c(cn1)c(-c1ccn(C)n1)nn2-c1ccnc(C(C)(F)F)n1
